Consider 6 compounds from publication PMC4768221, “Subcellular localization of anthracyclines in cultured rat cardiomyoblasts as possible predictors of cardiotoxicity” (Investigational New Drugs, 2015).

The structures appear in SMILES notation. Like-named read-outs stand apart in the source and are kept apart here.

On the set-up of data set [1]: method as in PMID 16158943. The settings on record: animal models, compared to DOX and DRB; cited from earlier work.
A short description of data set [2]: Cytotoxicity assay (MTT, inhibition of cell proliferation). It counts as cell-based, rat. The settings on record: rat. Here is the method:
(§1) The cytotoxic activity of the drugs was assayed by measuring their inhibitory effects on H9c2(2-1) cell proliferation. To measure the cytotoxicity of doxorubicin, daunorubicin, and their analogs, the tetrazolium dye method was used. Cells were seeded at 1 × 10^4 cells/well in 48-well plates. After 24 h, the cells were incubated with different concentrations of anthracyclines for 72 h in triplicate in a final volume of 1 ml. Then, 50 μl of a sterile aqueous solution of 3-[4,5-dimethylthiazol-2-yl]-2,5-diphenyl-tetrazolium bromide (5 mg/ml) (Sigma-Aldrich) was added to each well for an additional 3 h. The blue formazan precipitate was dissolved in DMSO (Sigma-Aldrich), and the absorbance of solutions was measured at 540 nm. For each experiment, determinations were performed in three replicates. The IC50 values (the anthracycline concentration effective at inhibiting cell growth after exposure to the drug for 72 h) were read from survival curves, which were fitted to an exponential equation using Xact v. 7.2, a statistical software tool by SciLab (Germany).

The test system of data set [3] is H9c2(2-1) cells. As to the kind of experiment: Cell cycle analysis by flow cytometry. It counts as cell-based, rat. The settings on record: for Cell cycle arrest pattern: 24 h treatment at IC50, data not shown; for Cells in G2/M phase / Cells in S phase / Cells in G0/G1 phase: 24 h treatment at equitoxic concentration (IC50); for Cells in G2/M phase: untreated control 8.7 %; for Cells in S phase: untreated control 11 %; for Cells in G0/G1 phase: untreated control 80.1 %. Here is the method: The cell cycle was analyzed by flow cytometry using a Becton-Dickinson FACSCanto II flow cytometer. H9c2(2-1) cells were seeded at 1 × 10^4 cells/cm^2 in 10 cm^2 culture flasks. After the cells were allowed to grow for 24 h, the medium was replaced and the cells were treated with an equitoxic anthracycline concentration corresponding to IC50. Treatment was performed for 24 h, and then the cells were washed in PBS and trypsinized. After the cells were washed in PBS again, they were fixed in 70 % ethanol and incubated for 1 h on ice. Fixed cells were washed twice in PBS, resuspended in commercially available propidium iodide staining solution and then subjected to flow cytometric assay. The percentages of H9c2(2-1) cells present in G1, S, and G2 phases of the cell cycle after drug treatment were analyzed using FACSDiva 6.1 software.

The subject of data set [4] is double-stranded calf thymus DNA. Nature of the data set: Ethidium bromide displacement assay (affinity to DNA). The class given is binding. As to conditions: for Kapp (apparent DNA binding constant): ethidium bromide displacement, mean of three ± S.D.; for Kapp relative to parent drug (times lower): vs DOX or DRB. Here is the method:
The binding of the anthracyclines to double-stranded calf thymus DNA was tested by the ethidium bromide displacement assay. This method is based on the competition between the tested compound and ethidium bromide for DNA intercalation sites. The fluorescence intensity of ethidium bromide increases upon DNA binding. Addition of a compound displacing intercalated ethidium bromide leads to quenching of the fluorescence of the DNA/ethidium bromide complex. The percentage of initial fluorescence was plotted against the concentration of the added compound, and the IC50 value was read. The IC50 value is defined as the concentration of added compound required to reduce the fluorescence of the DNA/ethidium bromide complex to 50 %. IC50 values were then used to calculate the apparent binding constants of the anthracyclines to DNA.

For data set [5], the system named is H9c2(2-1) rat cardiomyoblasts. Nature of the data set: Cytotoxicity assay (MTT, inhibition of cell proliferation). It counts as cell-based. As to conditions: 72 h. Here is the method:
as §1

The test system of data set [6] is H9c2(2-1) cells. Nature of the data set: Cellular uptake (fluorimetric, ethanol/HCl extraction). It counts as cell-based, rat. As to conditions: 10 μM, 1 h; for Accumulation relative to parent drug (times higher): vs DOX or DRB. Here is the method: Anthracycline uptake was estimated by fluorimetric measurements after the drugs were extracted with an ethanol/HCl mixture as described by Riganti et al.. H9c2(2-1) cells (2 × 10^5) were seeded onto 40 × 11 mm tissue culture dishes for 24 h. Then, the cells were treated in growth medium with 10 μM anthracycline solution at 37 °C for 1 h. After this time, the cells were gently scraped and suspended in 5 ml of ice-cold PBS. The cell suspension aliquots were centrifuged at 1500 rpm for 5 min and then washed twice in ice-cold PBS. Next, cell pellets were collected and resuspended in 2 ml of a 1:1 mixture of ethanol:0.3 M HCl, and the fluorescence intensities of these suspensions were measured at 20 °C using a Perkin-Elmer LS 55 spectrofluorimeter. The optimal excitation and emission wavelengths were 485 and 590 nm, respectively. To estimate the drug concentrations, calibration curves in the concentration range of 0.01–0.5 μM were prepared. Because the fluorescence was quenched slightly in the presence of cells, each point of the calibration curves was measured in the presence of 2 × 10^5 cells suspended in a mixture of ethanol/HCl.

[7] abbreviates: H9c2(2-1) rat cardiomyoblast cells, H9c2(2-1) cells, 72 h exposure, MTT, mean of six experiments ± S.D., read-out: Cytotoxicity IC50.
Setting [8] is: H9c2(2-1), parent DOX or DRB vs analog.
The mark [9] stands for this setting: H9c2(2-1) cells, 72 h exposure, MTT, mean of six experiments ± S.D., read-out: Cytotoxicity IC50.

Take `COc1cccc2c1C(=O)c1c(O)c3c(c(O)c1C2=O)C[C@@](O)(C(C)=O)C[C@@H]3O[C@H]1C[C@H](N)[C@H](O)[C@H](C)O1` [DRB, daunorubicin, reference compound]: the Cardiotoxicity in vivo result in data set [1] is “most cardiotoxic”. In addition, the IC50 at 72 h in data set [2] (setting [7]) was found to be 76 ± 7 nM. Also, the “Cell cycle arrest pattern” value in data set [3] is recorded as “G2/M arrest”. Besides, the “Kapp (apparent DNA binding constant)” value in data set [4] is 11.7 ± 0.22 × 10^5 [M^-1].

Consider `COc1cccc2c1C(=O)c1c(O)c3c(c(O)c1C2=O)C[C@@](O)(C(C)=O)C[C@@H]3O[C@H]1C[C@H](N=CN2CCCCCC2)[C@H](O)[C@H](C)O1` [DRBH], for which the Cardiotoxicity in vivo result in data set [1] was “lower cardiotoxicity”. Besides, the “Cytotoxic activity of the parent compound relative to this analog (times higher)” value in data set [5] (setting [8]) is on record as 2 times. Also, the IC50 at 72 h in data set [2] (setting [9]) is 172 ± 14 nM. Besides, the “Cell cycle arrest pattern” value in data set [3] is recorded as “S phase arrest”. For the same compound, in data set [4], the “Kapp (apparent DNA binding constant)” value was 4.1 ± 0.08 × 10^5 [M^-1] and the “Kapp relative to parent drug (times lower)” value is on record as 2.5–2.8 times. Further, the “Accumulation relative to other tested compounds (times higher)” value in data set [6] (other than parent DRB) was 5–7 times. Further, the “Accumulation relative to parent drug (times higher)” value in data set [6] is given as “more than 1.5 times”.

With `COc1cccc2c1C(=O)c1c(O)c3c(c(O)c1C2=O)C[C@@](O)(C(=O)CO)C[C@@H]3O[C@H]1C[C@H](N)[C@H](O)[C@H](C)O1` [DOX, doxorubicin, reference compound], the Cardiotoxicity in vivo entry in data set [1] was “most cardiotoxic”. Moreover, the IC50 at 72 h in data set [2] (setting [7]) was 35 ± 4 nM. Besides, in data set [3], the “Cells in G2/M phase” value came to 40.6%, the “Cells in S phase” value is 9.0% and the “Cells in G0/G1 phase” value is on record as 50.4%. Also, the “Kapp (apparent DNA binding constant)” value in data set [4] is 18.1 ± 0.41 × 10^5 [M^-1]. In data set [6], the “Cellular accumulation higher than DOXM” value is reported as “approximately 30%”.

On to `COc1cccc2c1C(=O)c1c(O)c3c(c(O)c1C2=O)C[C@@](O)(C(=O)CO)C[C@@H]3O[C@H]1C[C@H](N=CN2CCCCCC2)[C@H](O)[C@H](C)O1` [DOXH], for which the Cardiotoxicity in vivo entry in data set [1] is listed as “lower cardiotoxicity”. The “Cytotoxic activity of the parent compound relative to this analog (times higher)” value in data set [5] (setting [8]) is roughly 2.5 times. Moreover, in data set [2] (setting [9]), the IC50 at 72 h came to 87 ± 7 nM. In addition, in data set [3], the “Cells in G2/M phase” value amounted to 13.5%, the “Cells in S phase” value amounted to 36.4% and the “Cells in G0/G1 phase” value was determined as 50.1%. Further, in data set [4], the “Kapp (apparent DNA binding constant)” value was 7.30 ± 0.14 × 10^5 [M^-1] and the “Kapp relative to parent drug (times lower)” value is on record as 2.5–2.8 times. Moreover, in data set [6], the “Accumulation relative to DOXM (times higher)” value is listed as roughly 2 times and the “Accumulation relative to parent drug (times higher)” value is given as 1.5 times.

Turning to `COc1cccc2c1C(=O)c1c(O)c3c(c(O)c1C2=O)C[C@@](O)(C(=O)CO)C[C@@H]3O[C@H]1C[C@H](N=CN2CCOCC2)[C@H](O)[C@H](C)O1` [DOXM], in data set [1], the Cardiotoxicity in vivo result is “lower cardiotoxicity”. In data set [5] (setting [8]), the “Cytotoxic activity of the parent compound relative to this analog (times higher)” value was “approximately 4 times”. Moreover, the IC50 at 72 h in data set [2] (setting [9]) was found to be 138 ± 18 nM. For the same compound, in data set [3], the “Cells in G2/M phase” value came to 13.0%, the “Cells in S phase” value came out at 33.5% and the “Cells in G0/G1 phase” value was 53.5%. Besides, in data set [4], the “Kapp (apparent DNA binding constant)” value is 0.90 ± 0.12 × 10^5 [M^-1] and the “Kapp relative to parent drug (times lower)” value is listed as “approximately 20 times”.

As for `COc1cccc2c1C(=O)c1c(O)c3c(c(O)c1C2=O)C[C@@](O)(C(C)=O)C[C@@H]3O[C@H]1C[C@H](N=CN2CCOCC2)[C@H](O)[C@H](C)O1` [DRBM], the Cardiotoxicity in vivo result in data set [1] was “lower cardiotoxicity”. In data set [5] (rat), the “Cytotoxic activity of the parent compound relative to this analog (times higher)” value is reported as 8 times. In addition, half-maximal inhibition in data set [2] (IC50 at 72 h) required 626 ± 18 nM. The “Cell cycle arrest pattern” value in data set [3] was “S phase arrest”. In data set [4], the “Kapp (apparent DNA binding constant)” value is 0.64 ± 0.03 × 10^5 [M^-1] and the “Kapp relative to parent drug (times lower)” value is “approximately 20 times”.
